Data set [1] in a line: Physical stability evaluation under stress conditions (XRPD before/after). Type of data set: physicochemical. To be noted: stored at 60° C.±2° C./80% RH±5% for two days, packaged ((LPDE+N2)+silica gel 1 g+LDPE)+Al-Bag. How it is done: 1. XRPD Analysis A plate for obtaining an XRPD pattern was mounted on a Bruker General Area Detector Diffraction System (GADDS) equipped with a VANTEC-500 gas domain detector calibrated for intensity and geometric changes. Calibration of measurement accuracy (peak position) was performed using NIST SRM1976 standard (Corundum). Data collection was performed at room temperature using monochromatic CuKα radiation in a diffraction angle (2θ) region of 1.5° to 41.5°, the most distinct part of the XRPD pattern. The diffraction pattern of each well was collected at two 2θ ranges (1.5°≤2θ≤21.5° for a first frame and 9.5°≤2θ≤41.5° for a second frame) with an exposure time of 90 seconds for each frame. No background subtraction or curve smoothing was applied to the XRPD pattern. The carrier material used in the XRPD analysis was transparent to X-rays.
4. Experiment on Physical Stability Evaluation
Samples were packaged in the form of ((LPDE+N2)+silica gel 1 g+LDPE)+Al-Bag, and stored under stress conditions (60° C.±2° C./80% RH±5%) for two days before evaluation.

The nature of data set [2]: TGA/SDTA and TGMS analysis. It counts as physicochemical. The note with it: heating 25° C. to 300° C. at 10° C./min. As for the experimental part:
3. TGA/SDTA and TGMS Analysis
A mass loss caused by solvent or a moisture loss from crystals was determined by thermogravimetric analysis/simultaneous differential thermal analysis (TGA/SDTA). A weight versus temperature curve was generated by monitoring the weight of samples during heating in a TGA/SDTA851e apparatus (product name, Mettler-Toledo GmbH, Switzerland). TGA/SDTA851e was calibrated with indium and aluminum samples. The sample was placed in a 100 μL aluminum crucible and sealed, and then a pin-hole was drilled therein. The crucible was heated from 25° C. to 300° C. in TGA at a heating rate of 10° C./min. Dry N2 gas was used for purging. The gas coming out of the TGA sample was analyzed by Omnistar GSD 301 T2 (product name, Pfeiffer Vacuum GmbH, Germany), which was a quadrupole mass spectrometer for analyzing a mass in the range of 0-200 amu.

For `C[C@@H]1CN(C(=O)CC#N)CC=C1c1cc(NC(=O)C2CC2)nc2[nH]ccc12` [Example 1, (S)-N-(4-(1-(2-cyanoacetyl)-3-methyl-1,2,3,6-tetrahydropyridin-4-yl)-1H-pyrrolo[2,3-b]pyridin-6-yl)cyclopropanecarboxamide], the “change in the XPRD pattern before/after the stress conditions (physical stability)” value in data set [1] is reported as “substantially no change in the XPRD pattern”.

Turning to `C[C@@H]1CN(C(=O)CC#N)CC=C1c1cc(NC(=O)C2CC2)nc2[nH]ccc12` [(S)-N-(4-(1-(2-cyanoacetyl)-3-methyl-1,2,3,6-tetrahydropyridin-4-yl)-1H-pyrrolo[2,3-b]pyridin-6-yl)cyclopropanecarboxamide], the “start of thermal decomposition” value in data set [2] (TGA) was “about 260 °C”. For the same molecule, the “mass reduction rate (thermogravimetric analysis)” value in data set [2] (at 150° C.) turned out to be 1.6%.

Source of the values: US20240051957A1, “CRYSTALLINE FORM OF HETEROCYCLIC COMPOUND AS PROTEIN KINASE INHIBITOR” (HK INNO.N CORPORATION, priority 2021, published 2024).
